Measured values reported in US10544143B2, “4-azaindole compounds” (BRISTOL-MYERS SQUIBB COMPANY, priority 2017, dated 2020).
pIC50: −log10 of the molar value.

Tests used:
[1] = target: human TLR7 (Homo sapiens (Human), UniProt Q9NYK1); test: TLR7 inhibition reporter assay (HEK-Blue SEAP); assay type: cell-based; settings: HEK-Blue cells overexpressing human TLR7, SEAP reporter, gardiquimod 7.5 μM
[2] = target: human TLR8 (Homo sapiens (Human), UniProt Q9NR97); test: TLR8 inhibition reporter assay (HEK-Blue SEAP); settings: read-out: TLR8 IC50; HEK-Blue cells overexpressing human TLR8, SEAP reporter, R848 15.9 μM;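 note: SEAP driven by IFN-β minimal promoter carrying NF-κB and AP-1 sites, compounds dosed 0.05 nM to 50 µM for 22 h, inhibition scaled between agonist-plus-DMSO and reference-inhibitor wells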
Chain of human TLR8 (Q9NR97 27-1041): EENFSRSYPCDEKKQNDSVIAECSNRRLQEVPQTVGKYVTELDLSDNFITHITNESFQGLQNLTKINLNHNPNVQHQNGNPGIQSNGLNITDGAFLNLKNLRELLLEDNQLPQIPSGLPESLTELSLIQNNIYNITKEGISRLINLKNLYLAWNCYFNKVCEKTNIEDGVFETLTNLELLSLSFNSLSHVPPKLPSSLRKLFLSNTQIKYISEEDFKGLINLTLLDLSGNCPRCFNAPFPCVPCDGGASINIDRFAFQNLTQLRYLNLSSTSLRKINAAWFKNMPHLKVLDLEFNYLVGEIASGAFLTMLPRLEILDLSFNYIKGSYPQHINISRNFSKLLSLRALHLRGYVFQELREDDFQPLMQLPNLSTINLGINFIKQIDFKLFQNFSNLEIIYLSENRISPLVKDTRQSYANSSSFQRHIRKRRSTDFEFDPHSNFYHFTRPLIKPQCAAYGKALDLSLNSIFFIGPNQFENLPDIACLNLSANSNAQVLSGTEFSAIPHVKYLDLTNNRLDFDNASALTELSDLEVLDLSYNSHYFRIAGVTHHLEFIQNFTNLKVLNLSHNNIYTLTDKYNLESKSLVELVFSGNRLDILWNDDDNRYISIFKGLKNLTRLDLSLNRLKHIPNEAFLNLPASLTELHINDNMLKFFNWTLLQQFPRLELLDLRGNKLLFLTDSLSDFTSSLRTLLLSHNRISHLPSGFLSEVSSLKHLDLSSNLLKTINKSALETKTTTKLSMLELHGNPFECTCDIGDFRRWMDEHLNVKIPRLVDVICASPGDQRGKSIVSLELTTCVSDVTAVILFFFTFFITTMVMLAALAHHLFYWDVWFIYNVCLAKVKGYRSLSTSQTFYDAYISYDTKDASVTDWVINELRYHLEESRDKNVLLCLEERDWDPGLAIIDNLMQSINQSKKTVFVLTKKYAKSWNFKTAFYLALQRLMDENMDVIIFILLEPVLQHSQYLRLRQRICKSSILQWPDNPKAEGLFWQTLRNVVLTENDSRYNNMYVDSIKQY

[3] = target: human TLR9 (Homo sapiens (Human), UniProt Q9NR96); test: TLR9 inhibition reporter assay (HEK-Blue SEAP); settings: read-out: TLR9 IC50; HEK-Blue cells overexpressing human TLR9, SEAP reporter, ODN2006 5 nM;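 note: SEAP driven by an IFN-β minimal promoter with NF-κB and AP-1 sites, read after 22 h, compounds dosed 0.05 nM–50 µM, inhibition scaled between agonist plus DMSO and reference-inhibitor wells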
Chain of human TLR9 (Q9NR96 26-1032): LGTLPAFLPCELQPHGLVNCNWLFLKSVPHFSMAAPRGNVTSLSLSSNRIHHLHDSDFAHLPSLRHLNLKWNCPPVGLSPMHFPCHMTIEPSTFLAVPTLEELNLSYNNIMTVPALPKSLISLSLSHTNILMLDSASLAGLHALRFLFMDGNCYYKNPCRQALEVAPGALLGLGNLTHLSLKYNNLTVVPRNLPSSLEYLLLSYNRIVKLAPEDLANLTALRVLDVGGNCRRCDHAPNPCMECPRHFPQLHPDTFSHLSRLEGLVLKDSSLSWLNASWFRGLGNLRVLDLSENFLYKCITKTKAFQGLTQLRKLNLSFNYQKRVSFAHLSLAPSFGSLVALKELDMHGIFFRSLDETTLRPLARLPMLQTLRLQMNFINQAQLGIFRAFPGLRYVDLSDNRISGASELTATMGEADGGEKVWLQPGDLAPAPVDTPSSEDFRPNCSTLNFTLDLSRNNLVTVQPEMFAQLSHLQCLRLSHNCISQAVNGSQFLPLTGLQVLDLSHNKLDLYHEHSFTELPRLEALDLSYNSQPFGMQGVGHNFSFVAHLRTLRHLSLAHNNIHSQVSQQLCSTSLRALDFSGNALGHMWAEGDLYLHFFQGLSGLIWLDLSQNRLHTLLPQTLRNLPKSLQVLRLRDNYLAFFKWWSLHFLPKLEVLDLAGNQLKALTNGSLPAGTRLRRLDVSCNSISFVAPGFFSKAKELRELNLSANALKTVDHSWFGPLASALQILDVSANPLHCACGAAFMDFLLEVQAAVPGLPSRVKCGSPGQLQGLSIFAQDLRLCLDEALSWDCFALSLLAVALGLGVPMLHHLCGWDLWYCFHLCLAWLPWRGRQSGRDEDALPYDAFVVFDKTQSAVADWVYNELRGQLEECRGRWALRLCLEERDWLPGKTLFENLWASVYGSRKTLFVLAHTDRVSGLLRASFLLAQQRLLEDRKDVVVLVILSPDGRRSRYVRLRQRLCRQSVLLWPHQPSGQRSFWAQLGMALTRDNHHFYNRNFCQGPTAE
Procedure: HEK-Blue™-cells (Invivogen) overexpressing human TLR7, TLR8 or TLR9 receptors were used for screening inhibitors of these receptors using an inducible SEAP (secreted embryonic alkaline phosphatase) reporter gene under the control of the IFN-β minimal promoter fused to five NF-κB and AP-1-binding sites. Briefly, cells are seeded into Greiner 384 well plates (15000 cells per well for TLR7, 20,000 for TLR8 and 25,000 for TLR9) and then treated with test compounds in DMSO to yield a final dose response concentration range of 0.05 nM-50 μM. After a 30 minute compound pre-treatment at room temperature, the cells are then stimulated with a TLR7 ligand (gardiquimod at a final concentration of 7.5 μM), TLR8 ligand (R848 at a final concentration of 15.9 μM) or TLR9 ligand (ODN2006 at a final concentration of 5 nM) to activate NF-κB and AP-1 which induce the production of SEAP. After a 22 hour incubation at 37° C., 5% CO2, SEAP levels are determined with the addition of HEK-Blue™ Detection reagent (Invivogen), a cell culture medium that allows for detection of SEAP, according to manufacturer's specifications.

Chain of human TLR7 (Q9NYK1 27-1049): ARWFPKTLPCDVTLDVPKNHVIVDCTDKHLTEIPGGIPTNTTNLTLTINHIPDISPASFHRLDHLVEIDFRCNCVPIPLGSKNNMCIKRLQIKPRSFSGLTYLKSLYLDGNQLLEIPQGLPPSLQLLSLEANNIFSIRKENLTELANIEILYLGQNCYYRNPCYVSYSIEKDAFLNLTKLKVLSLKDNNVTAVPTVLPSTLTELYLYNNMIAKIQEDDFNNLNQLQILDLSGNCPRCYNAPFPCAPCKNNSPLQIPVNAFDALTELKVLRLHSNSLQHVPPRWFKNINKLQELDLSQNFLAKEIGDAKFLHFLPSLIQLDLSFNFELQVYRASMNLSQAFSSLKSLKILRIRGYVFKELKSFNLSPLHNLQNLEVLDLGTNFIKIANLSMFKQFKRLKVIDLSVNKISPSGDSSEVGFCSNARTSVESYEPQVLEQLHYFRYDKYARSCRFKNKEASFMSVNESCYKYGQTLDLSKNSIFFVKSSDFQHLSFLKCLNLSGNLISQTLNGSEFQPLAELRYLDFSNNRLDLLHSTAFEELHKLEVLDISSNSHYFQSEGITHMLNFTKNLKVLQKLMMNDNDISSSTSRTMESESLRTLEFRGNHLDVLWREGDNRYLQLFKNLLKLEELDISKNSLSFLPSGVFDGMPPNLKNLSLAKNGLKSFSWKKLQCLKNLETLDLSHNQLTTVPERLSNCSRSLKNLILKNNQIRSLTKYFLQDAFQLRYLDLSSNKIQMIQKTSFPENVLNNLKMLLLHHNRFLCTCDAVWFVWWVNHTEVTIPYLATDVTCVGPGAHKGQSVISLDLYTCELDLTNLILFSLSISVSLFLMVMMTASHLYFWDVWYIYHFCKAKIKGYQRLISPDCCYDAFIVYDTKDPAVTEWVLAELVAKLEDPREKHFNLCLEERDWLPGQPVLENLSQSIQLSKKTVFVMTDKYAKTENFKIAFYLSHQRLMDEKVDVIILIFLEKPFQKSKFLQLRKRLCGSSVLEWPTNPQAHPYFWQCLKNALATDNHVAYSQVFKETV

Row | Compound | pIC50 [1] | pIC50 [2] | pIC50 [3]
1 | Cc1c(-c2[nH]c3ccc(C4CCC(N5CCCC5)CC4)nc3c2C(C)C)cn2ncnc2c1C (stereo not drawn) [Example 407] | 8.14 | 8.07 | 5.61
2 | Cc1c(-c2[nH]c3ccc(C4CCC(N(C)CC(=O)N(C)C)CC4)nc3c2C(C)C)cn2ncnc2c1C (stereo not drawn) [Example 408] | 7.74 | 7.37 | 5.19
3 | Cc1c(-c2[nH]c3ccc(C4CCC(N(C)CC(=O)N(C)C)CC4)nc3c2C(C)C)cn2ncnc2c1C (stereo not drawn) [Example 410] | 8.30 | 8.19 | 5.31
4 | Cc1c(-c2[nH]c3ccc(C4CCC(NCc5c[nH]nn5)CC4)nc3c2C(C)C)cn2ncnc2c1C (stereo not drawn) [Example 412] | 8.66 | 8.68 | 6.14
5 | Cc1c(-c2[nH]c3ccc(C4CCC(NCc5cnco5)CC4)nc3c2C(C)C)cn2ncnc2c1C (stereo not drawn) [Example 413] | […] | 7.74 | 5.32
6 | Cc1cnc(CN(C)C2CCC(c3ccc4[nH]c(-c5cn6ncnc6c(C)c5C)c(C(C)C)c4n3)CC2)cn1 (stereo not drawn) [Example 414] | 8.29 | 7.92 | 5.76
7 | Cc1cnc(CN(C)C2CCC(c3ccc4[nH]c(-c5cn6ncnc6c(C)c5C)c(C(C)C)c4n3)CC2)cn1 (stereo not drawn) [Example 415] | 8.60 | 8.46 | 5.91
8 | Cc1c(-c2[nH]c3ccc(C4CCC(NCc5cnco5)CC4)nc3c2C(C)C)cn2ncnc2c1C (stereo not drawn) [Example 416] | […] | 8.92 | 5.79
9 | Cc1c(-c2[nH]c3ccc(C4CCC(NCC5(S(C)(=O)=O)CC5)CC4)nc3c2C(C)C)cn2ncnc2c1C (stereo not drawn) [Example 419] | 8.39 | 8.60 | 5.76
10 | Cc1c(-c2[nH]c3ccc(C4CCC(NCCS(=O)(=O)C(F)(F)F)CC4)nc3c2C(C)C)cn2ncnc2c1C (stereo not drawn) [Example 423] | 6.76 | 7.08 | < 4.30
11 | COCCNC1CCC(c2ccc3[nH]c(-c4cn5ncnc5c(C)c4C)c(C(C)C)c3n2)CC1 (stereo not drawn) [Example 429] | 8.47 | 8.28 | 5.15
12 | COCCNC1CCC(c2ccc3[nH]c(-c4cn5ncnc5c(C)c4C)c(C(C)C)c3n2)CC1 (stereo not drawn) [Example 431] | 7.80 | 7.96 | 5.33
13 | Cc1c(-c2[nH]c3ccc(C4CCC(N5CCN(C)C(=O)C5)CC4)nc3c2C(C)C)cn2ncnc2c1C (stereo not drawn) [Example 442] | 8.43 | 8.46 | 4.74
14 | Cc1c(-c2[nH]c3ccc(C4CCC(N5CC(S(C)(=O)=O)C5)CC4)nc3c2C(C)C)cn2ncnc2c1C (stereo not drawn) [Example 445] | 8.82 | 8.44 | 5.31
15 | Cc1c(-c2[nH]c3ccc(C4CCC(NCCS(N)(=O)=O)CC4)nc3c2C(C)C)cn2ncnc2c1C (stereo not drawn) [Example 446] | 9.04 | 9.04 | 6.44
16 | Cc1c(-c2[nH]c3ccc(C4CCC(NCCS(N)(=O)=O)CC4)nc3c2C(C)C)cn2ncnc2c1C (stereo not drawn) [Example 447] | 8.77 | 8.64 | 5.79
17 | Cc1c(-c2[nH]c3ccc(C4CCC(N5CC(S(C)(=O)=O)C5)CC4)nc3c2C(C)C)cn2ncnc2c1C (stereo not drawn) [Example 448] | 8.12 | 7.62 | 5.11
18 | Cc1c(-c2[nH]c3ccc(C4CCC(NCCS(C)(=O)=O)CC4)nc3c2C(C)C)cn2ncnc2c1C (stereo not drawn) [Example 450] | 9.21 | 9.15 | 5.92
19 | Cc1c(-c2[nH]c3ccc(C4CCC(NC5CCOCC5)CC4)nc3c2C(C)C)cn2ncnc2c1C (stereo not drawn) [Example 451] | 9.32 | 9.20 | 5.98
20 | Cc1c(-c2[nH]c3ccc(C4CCC(NCCS(C)(=O)=O)CC4)nc3c2C(C)C)cn2ncnc2c1C (stereo not drawn) [Example 452] | 8.57 | 8.36 | 5.51
21 | Cc1c(-c2[nH]c3ccc(C4CCC(NC5CCOCC5)CC4)nc3c2C(C)C)cn2ncnc2c1C (stereo not drawn) [Example 453] | 8.40 | 8.48 | 5.84
22 | Cc1c(-c2[nH]c3ccc(C4CCC(NCC(C)(C)S(C)(=O)=O)CC4)nc3c2C(C)C)cn2ncnc2c1C (stereo not drawn) [Example 454] | 8.92 | 9.17 | 5.62
23 | Cc1c(-c2[nH]c3ccc(C4CCC(NCC(C)(C)S(C)(=O)=O)CC4)nc3c2C(C)C)cn2ncnc2c1C (stereo not drawn) [Example 455] | 7.85 | 7.92 | 5.04
24 | Cc1c(-c2[nH]c3ccc(C4CCC(N(CC#N)CCS(C)(=O)=O)CC4)nc3c2C(C)C)cn2ncnc2c1C (stereo not drawn) [Example 457] | 9.49 | 9.52 | 6.21
25 | Cc1c(-c2[nH]c3ccc(C4CCC(N(CC#N)CCS(C)(=O)=O)CC4)nc3c2C(C)C)cn2ncnc2c1C (stereo not drawn) [Example 458] | 8.30 | 8.00 | 5.01
26 | Cc1c(-c2[nH]c3ccc(C4CCC(N(CCO)CCS(C)(=O)=O)CC4)nc3c2C(C)C)cn2ncnc2c1C (stereo not drawn) [Example 461] | 8.59 | 8.77 | 5.07
27 | CCN(CC(=O)N(C)C)C1CCC(c2ccc3[nH]c(-c4cn5ncnc5c(C)c4C)c(C(C)C)c3n2)CC1 (stereo not drawn) [Example 462] | 8.16 | 8.08 | 5.34
28 | Cc1c(-c2[nH]c3ccc(C4CCC(N(CCO)CC(=O)N(C)C)CC4)nc3c2C(C)C)cn2ncnc2c1C (stereo not drawn) [Example 463] | 8.13 | 7.62 | 4.80
29 | Cc1c(-c2[nH]c3ccc(C4CCC(NCC5CCCCS5(=O)=O)CC4)nc3c2C(C)C)cn2ncnc2c1C (stereo not drawn) [Example 464] | 9.17 | 9.07 | 5.75
30 | Cc1c(-c2[nH]c3ccc(C4CCC(NC5CCS(=O)(=O)C5)CC4)nc3c2C(C)C)cn2ncnc2c1C (stereo not drawn) [Example 465] | 8.96 | 8.72 | 5.25

Continued, values first:

Row | pIC50 [1] | pIC50 [2] | pIC50 [3] | Compound
31 | 8.85 | 8.52 | 5.83 | Cc1c(-c2[nH]c3ccc(C4CCC(N(C)CC(N)=O)CC4)nc3c2C(C)C)cn2ncnc2c1C (stereo not drawn) [Example 406]
32 | 8.77 | 8.80 | 6.26 | Cc1c(-c2[nH]c3ccc(C4CCC(NCCO)CC4)nc3c2C(C)C)cn2ncnc2c1C (stereo not drawn) [Example 409]
33 | 8.20 | 8.10 | 5.64 | CCN(CC)C1CCC(c2ccc3[nH]c(-c4cn5ncnc5c(C)c4C)c(C(C)C)c3n2)CC1 (stereo not drawn) [Example 411]
34 | 8.92 | 8.55 | 5.45 | CNC(=O)CN(C)C1CCC(c2ccc3[nH]c(-c4cn5ncnc5c(C)c4C)c(C(C)C)c3n2)CC1 (stereo not drawn) [Example 420]
35 | 8.80 | 8.74 | 5.69 | Cc1c(-c2[nH]c3ccc(C4CCC(NC5CC5)CC4)nc3c2C(C)C)cn2ncnc2c1C (stereo not drawn) [Example 421]
36 | 7.82 | 7.46 | 5.20 | CNC(=O)CN(C)C1CCC(c2ccc3[nH]c(-c4cn5ncnc5c(C)c4C)c(C(C)C)c3n2)CC1 (stereo not drawn) [Example 422]
37 | 9.06 | 9.30 | 5.54 | Cc1c(-c2[nH]c3ccc(C4CCC(N(C)CCS(C)(=O)=O)CC4)nc3c2C(C)C)cn2ncnc2c1C (stereo not drawn) [Example 425]
38 | 8.60 | 8.59 | 5.85 | Cc1c(-c2[nH]c3ccc(C4CCC(NC5CC5)CC4)nc3c2C(C)C)cn2ncnc2c1C (stereo not drawn) [Example 426]
39 | 8.62 | 8.12 | 5.31 | Cc1c(-c2[nH]c3ccc(C4CCC(N(C)CCS(C)(=O)=O)CC4)nc3c2C(C)C)cn2ncnc2c1C (stereo not drawn) [Example 427]
40 | 8.13 | 8.19 | 5.01 | Cc1c(-c2[nH]c3ccc(C4CCC(N(CCC#N)C5CC5)CC4)nc3c2C(C)C)cn2ncnc2c1C (stereo not drawn) [Example 428]
41 | 9.43 | 9.26 | 6.23 | Cc1c(-c2[nH]c3ccc(C4CCC(NCCC#N)CC4)nc3c2C(C)C)cn2ncnc2c1C (stereo not drawn) [Example 432]
42 | 7.38 | 7.22 | < 4.30 | Cc1c(-c2[nH]c3ccc(C4CCC(N(CCC#N)C5CC5)CC4)nc3c2C(C)C)cn2ncnc2c1C (stereo not drawn) [Example 433]
43 | 8.82 | 8.62 | 5.13 | Cc1c(-c2[nH]c3ccc(C4CCC(N5CC(C#N)C5)CC4)nc3c2C(C)C)cn2ncnc2c1C (stereo not drawn) [Example 434]
44 | 8.46 | 7.49 | 4.62 | CC(=O)N(C)C1CCC(c2ccc3[nH]c(-c4cn5ncnc5c(C)c4C)c(C(C)C)c3n2)CC1 (stereo not drawn) [Example 439]
45 | 8.19 | 7.85 | < 4.30 | CC(=O)N(C)C1CCC(c2ccc3[nH]c(-c4cn5ncnc5c(C)c4C)c(C(C)C)c3n2)CC1 (stereo not drawn) [Example 440]
46 | 9.10 | 9.20 | 5.78 | Cc1c(-c2[nH]c3ccc(C4CCC(N(CC#N)C5COC5)CC4)nc3c2C(C)C)cn2ncnc2c1C (stereo not drawn) [Example 441]
47 | 7.80 | 8.28 | 4.41 | Cc1c(-c2[nH]c3ccc(C4CCC(N(CCO)C5COC5)CC4)nc3c2C(C)C)cn2ncnc2c1C (stereo not drawn) [Example 444]
48 | 6.49 | 6.78 | 4.75 | CNC(=O)CN(C1CCC(c2ccc3[nH]c(-c4cn5ncnc5c(C)c4C)c(C(C)C)c3n2)CC1)C1COC1 (stereo not drawn) [Example 449]
49 | 8.59 | 8.09 | 5.11 | Cc1c(-c2[nH]c3ccc(C4CCC(N(CC#N)CC(=O)N(C)C)CC4)nc3c2C(C)C)cn2ncnc2c1C (stereo not drawn) [Example 456]
50 | 8.21 | 8.37 | 5.55 | Cc1c(-c2[nH]c3ccc(C4CCC(N(CC#N)CC(=O)N(C)C)CC4)nc3c2C(C)C)cn2ncnc2c1C (stereo not drawn) [Example 459]
51 | 7.23 | 6.69 | 5.24 | Cc1c(-c2[nH]c3ccc(C4CCC(N)CC4)nc3c2C(C)C)cn2ncnc2c1C (stereo not drawn) [Example 466]
